Test results as given in ChEMBL document CHEMBL1201862, “PubChem BioAssay data set” (2004).
Active and inactive are the calls of the source.

Columns and labels:
[1] = Trypanosoma cruzi growth suppression in host cells – NIH3T3 host cells, beta-gal luminescence, confirmation (AID 2044); type: functional, cell-based;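 note: intracellular parasites grown in NIH/3T3 mouse fibroblasts as host cells; luminescent beta-galactosidase reporter signal from transgenic T. cruzi replicating inside host cells; inhibitors lower the luminescence signal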
[2] = NIH3T3 cell viability loss – ATP luminescence, mouse fibroblasts, counter-screen, dose response (AID 2010); type: functional, cell-based;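 note: cells exposed to compound for about 90 hours before reading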
[3] = target: DNA dC->dU-editing enzyme APOBEC-3A (Homo sapiens, UniProt P31941); test: A3A deaminase inhibition for selectivity – biochemical, dose response (AID 504722); type: functional
DNA dC->dU-editing enzyme APOBEC-3A, sequence (P31941 whole entry): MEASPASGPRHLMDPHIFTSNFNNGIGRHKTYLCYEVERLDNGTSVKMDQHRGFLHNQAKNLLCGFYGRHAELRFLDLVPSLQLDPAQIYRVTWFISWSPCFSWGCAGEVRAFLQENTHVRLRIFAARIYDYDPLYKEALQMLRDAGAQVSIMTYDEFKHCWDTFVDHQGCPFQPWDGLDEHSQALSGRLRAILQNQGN

[4] = target: DNA dC->dU-editing enzyme APOBEC-3G (Homo sapiens, UniProt Q9HC16); test: Dose Response confirmation of small molecule APOBEC3G DNA Deaminase Inhibitors via a fluorescence-based single-stranded DNA deaminase assay. [Related pubchem assays (depositor defined):AID493012, AID493028]; type: functional
DNA dC->dU-editing enzyme APOBEC-3G, sequence (Q9HC16 whole entry): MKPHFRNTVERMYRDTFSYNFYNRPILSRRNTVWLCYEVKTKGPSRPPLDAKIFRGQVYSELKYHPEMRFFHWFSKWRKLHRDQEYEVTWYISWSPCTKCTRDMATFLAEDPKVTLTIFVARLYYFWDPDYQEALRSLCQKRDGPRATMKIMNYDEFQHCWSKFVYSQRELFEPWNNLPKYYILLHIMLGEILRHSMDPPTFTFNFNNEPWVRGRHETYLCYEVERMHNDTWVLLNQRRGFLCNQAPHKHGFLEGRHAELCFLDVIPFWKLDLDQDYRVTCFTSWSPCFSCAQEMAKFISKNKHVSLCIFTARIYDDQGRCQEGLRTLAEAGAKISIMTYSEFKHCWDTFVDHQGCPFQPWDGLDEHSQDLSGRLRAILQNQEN

[5] = M. tuberculosis H37Rv growth inhibitors, H37Rv strain (AID 1626); type: functional
Aminopeptidase N = target: T1, Aminopeptidase N (Plasmodium falciparum FcB1/Columbia, UniProt O96935); test: malaria alanyl aminopeptidase activity blockers – biochemical, fluorogenic H-Leu-NHMec substrate, 1536-well (AID 1445); set-up: species or system Plasmodium falciparum 3D7, 3D7
T1 sequence (O96935 whole entry): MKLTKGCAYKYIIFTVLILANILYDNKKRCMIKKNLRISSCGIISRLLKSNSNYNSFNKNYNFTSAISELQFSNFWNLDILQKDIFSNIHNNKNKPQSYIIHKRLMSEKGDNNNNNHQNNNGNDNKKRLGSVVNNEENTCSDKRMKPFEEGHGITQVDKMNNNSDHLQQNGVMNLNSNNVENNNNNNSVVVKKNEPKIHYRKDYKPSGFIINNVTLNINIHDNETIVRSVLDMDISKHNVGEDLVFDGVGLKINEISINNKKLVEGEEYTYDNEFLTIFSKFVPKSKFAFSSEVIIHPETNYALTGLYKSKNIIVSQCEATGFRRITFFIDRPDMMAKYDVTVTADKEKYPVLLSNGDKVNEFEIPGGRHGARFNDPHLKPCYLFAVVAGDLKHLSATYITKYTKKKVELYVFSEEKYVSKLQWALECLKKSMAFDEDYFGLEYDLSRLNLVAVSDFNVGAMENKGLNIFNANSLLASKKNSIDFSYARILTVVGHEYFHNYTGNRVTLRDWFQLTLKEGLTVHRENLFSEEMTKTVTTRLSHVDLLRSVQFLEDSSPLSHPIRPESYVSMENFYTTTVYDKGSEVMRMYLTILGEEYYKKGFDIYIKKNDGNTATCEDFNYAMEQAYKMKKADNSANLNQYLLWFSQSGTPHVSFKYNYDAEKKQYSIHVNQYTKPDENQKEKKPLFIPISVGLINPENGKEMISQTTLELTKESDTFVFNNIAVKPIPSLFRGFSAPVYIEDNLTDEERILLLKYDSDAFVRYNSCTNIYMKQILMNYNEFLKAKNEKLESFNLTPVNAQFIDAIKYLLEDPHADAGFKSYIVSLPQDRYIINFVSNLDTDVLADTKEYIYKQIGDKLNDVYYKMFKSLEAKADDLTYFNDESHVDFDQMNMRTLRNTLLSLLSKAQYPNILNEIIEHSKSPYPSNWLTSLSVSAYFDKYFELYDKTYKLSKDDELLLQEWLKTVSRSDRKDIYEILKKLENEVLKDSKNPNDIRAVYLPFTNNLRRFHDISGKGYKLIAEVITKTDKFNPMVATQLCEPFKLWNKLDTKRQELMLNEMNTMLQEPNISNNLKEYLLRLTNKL

[6] = target: G-protein coupled receptor 55 (Homo sapiens, UniProt Q9Y2T6); test: selective activators of receptor GPR55 – imaging, U2OS cells, beta-arrestin-GFP redistribution, primary screen (AID 1961); type: functional
G-protein coupled receptor 55, sequence (Q9Y2T6 whole entry): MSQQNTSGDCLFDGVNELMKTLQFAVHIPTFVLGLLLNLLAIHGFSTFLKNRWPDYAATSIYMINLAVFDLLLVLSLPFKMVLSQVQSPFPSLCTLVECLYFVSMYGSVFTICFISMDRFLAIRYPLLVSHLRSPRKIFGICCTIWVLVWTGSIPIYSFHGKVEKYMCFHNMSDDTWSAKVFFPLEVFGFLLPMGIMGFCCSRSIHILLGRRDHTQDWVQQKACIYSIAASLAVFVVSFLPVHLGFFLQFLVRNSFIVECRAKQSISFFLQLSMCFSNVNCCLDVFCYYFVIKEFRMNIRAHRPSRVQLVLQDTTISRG

SUMO-activating enzyme [7] = target: T2, SUMO-activating enzyme (Homo sapiens, UniProt Q9UBT2); test: blockers of UBC9-mediated SUMO conjugation – biochemical, AlphaScreen, SUMOylation inhibitor project, confirmation (AID 2018); type: functional
T2 sequence (Q9UBE0 whole entry): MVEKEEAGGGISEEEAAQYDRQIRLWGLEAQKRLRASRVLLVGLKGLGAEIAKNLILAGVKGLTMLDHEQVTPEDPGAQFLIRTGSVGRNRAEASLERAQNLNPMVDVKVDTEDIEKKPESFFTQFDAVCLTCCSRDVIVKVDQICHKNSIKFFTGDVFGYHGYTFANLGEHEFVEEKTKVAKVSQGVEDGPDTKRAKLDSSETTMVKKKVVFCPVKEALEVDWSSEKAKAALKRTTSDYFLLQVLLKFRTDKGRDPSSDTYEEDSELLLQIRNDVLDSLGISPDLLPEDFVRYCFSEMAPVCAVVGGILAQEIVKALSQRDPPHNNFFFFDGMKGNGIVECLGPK
T2 sequence (Q9UBT2 whole entry): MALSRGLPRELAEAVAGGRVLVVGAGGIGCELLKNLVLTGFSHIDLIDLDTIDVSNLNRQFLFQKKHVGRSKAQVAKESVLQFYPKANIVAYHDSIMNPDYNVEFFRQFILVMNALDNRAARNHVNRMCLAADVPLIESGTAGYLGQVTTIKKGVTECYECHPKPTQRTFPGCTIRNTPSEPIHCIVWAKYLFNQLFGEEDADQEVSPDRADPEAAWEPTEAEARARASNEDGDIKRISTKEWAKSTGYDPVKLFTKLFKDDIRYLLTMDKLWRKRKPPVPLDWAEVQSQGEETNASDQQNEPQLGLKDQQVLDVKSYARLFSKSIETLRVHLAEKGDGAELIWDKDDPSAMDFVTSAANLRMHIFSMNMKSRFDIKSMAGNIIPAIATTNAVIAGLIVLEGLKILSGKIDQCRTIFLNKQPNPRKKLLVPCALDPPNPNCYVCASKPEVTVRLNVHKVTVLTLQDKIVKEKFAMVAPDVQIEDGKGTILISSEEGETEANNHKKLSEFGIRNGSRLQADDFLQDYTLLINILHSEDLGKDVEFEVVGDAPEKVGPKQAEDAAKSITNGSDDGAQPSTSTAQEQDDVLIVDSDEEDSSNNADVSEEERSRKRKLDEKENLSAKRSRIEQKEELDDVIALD

SUMO-activating enzyme [8] = target: T2, SUMO-activating enzyme; test: blockers of SAE1/SAE2–UBC9 SUMO transfer – biochemical, HTRF, uHTS, primary screen (AID 2006); type: protein-complex assay
Streptokinase A = target: T3, Streptokinase A (Streptococcus pyogenes serotype M1, UniProt P10520); test: viability-normalized secreted streptokinase activity reduction – plasminogen activation absorbance, OD405, dose response (AID 1914); type: functional, Streptococcus pyogenes M1 GAS;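 note: secreted streptokinase activity via plasminogen activation per viability signal from cell pellet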
T3 sequence (P10520 whole entry): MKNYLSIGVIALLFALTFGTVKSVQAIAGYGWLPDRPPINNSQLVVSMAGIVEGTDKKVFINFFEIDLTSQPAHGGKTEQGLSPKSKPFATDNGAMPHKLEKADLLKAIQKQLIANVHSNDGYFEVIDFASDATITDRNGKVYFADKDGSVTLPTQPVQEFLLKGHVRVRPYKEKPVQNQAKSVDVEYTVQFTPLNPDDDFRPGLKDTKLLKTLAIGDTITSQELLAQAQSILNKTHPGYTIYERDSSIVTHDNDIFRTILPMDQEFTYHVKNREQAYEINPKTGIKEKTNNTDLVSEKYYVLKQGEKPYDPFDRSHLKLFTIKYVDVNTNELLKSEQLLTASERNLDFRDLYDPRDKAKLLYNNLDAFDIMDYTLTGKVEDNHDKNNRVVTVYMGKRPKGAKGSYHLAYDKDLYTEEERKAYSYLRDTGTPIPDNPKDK

Streptococcus = test: GAS UMAA2166 growth inhibition – luminescence, BacTiterGlo, counter-screen for streptokinase expression inhibitor project, dose response (AID 1915); type: functional, organism-based;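 note: potency for reduction of bacterial viability or growth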
Beta-galactosidase = Beta-galactosidase (Escherichia coli, UniProt Q8VNN2); test: detection-enzyme interference by beta-gal modulators – biochemical, E. coli enzyme, set 3, artefact control for CCR6 antagonist project, dose response (AID 504712); type: functional
Beta-galactosidase, sequence (Q8VNN2 whole entry): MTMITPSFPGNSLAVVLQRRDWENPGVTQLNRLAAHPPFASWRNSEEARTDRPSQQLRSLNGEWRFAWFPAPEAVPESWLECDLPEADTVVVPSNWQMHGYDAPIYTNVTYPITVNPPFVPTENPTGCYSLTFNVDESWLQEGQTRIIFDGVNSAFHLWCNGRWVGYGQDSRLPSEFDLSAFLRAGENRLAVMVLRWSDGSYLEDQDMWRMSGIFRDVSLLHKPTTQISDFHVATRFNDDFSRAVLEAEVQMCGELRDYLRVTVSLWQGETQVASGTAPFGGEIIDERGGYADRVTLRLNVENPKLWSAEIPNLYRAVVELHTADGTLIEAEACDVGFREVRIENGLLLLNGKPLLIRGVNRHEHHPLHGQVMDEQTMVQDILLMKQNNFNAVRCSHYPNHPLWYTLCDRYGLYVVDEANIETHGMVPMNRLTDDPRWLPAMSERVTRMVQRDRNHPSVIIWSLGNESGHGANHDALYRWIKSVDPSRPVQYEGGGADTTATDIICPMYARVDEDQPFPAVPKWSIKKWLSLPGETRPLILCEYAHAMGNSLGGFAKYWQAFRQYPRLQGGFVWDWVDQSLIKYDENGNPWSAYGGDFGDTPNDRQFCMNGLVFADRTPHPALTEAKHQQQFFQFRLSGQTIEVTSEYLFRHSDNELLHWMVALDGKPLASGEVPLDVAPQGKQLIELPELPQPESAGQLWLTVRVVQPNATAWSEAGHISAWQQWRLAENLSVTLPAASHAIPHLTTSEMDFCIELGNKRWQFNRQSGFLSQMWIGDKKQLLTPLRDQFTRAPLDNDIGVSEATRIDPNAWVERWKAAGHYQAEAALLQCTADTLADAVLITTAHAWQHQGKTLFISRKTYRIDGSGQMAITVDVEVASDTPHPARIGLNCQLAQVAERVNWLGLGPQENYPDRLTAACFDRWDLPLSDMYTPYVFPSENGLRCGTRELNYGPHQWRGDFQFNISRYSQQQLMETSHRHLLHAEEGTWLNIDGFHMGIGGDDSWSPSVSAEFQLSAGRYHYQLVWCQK

[9] = system: Streptococcus sp. 'group A'; test: Streptococcus pyogenes SK(-)GAS viability under kanamycin – luminescence, BacTiterGlo, confirmation, counter-screen for streptokinase expression inhibitor project, dose response (AID 1900); type: functional, organism-based
Protein RecA = target: T4, Protein RecA (Mycobacterium tuberculosis, UniProt P9WHJ3); test: Fluorescence Cell-Free Homogeneous Dose Retest to Identify Inhibitors of RecA-Intein Splicing Activity. [Related pubchem assays (depositor defined):AID2097, AID2223, AID489010, AID492950]; type: functional
T4 sequence (P9WHJ3 whole entry): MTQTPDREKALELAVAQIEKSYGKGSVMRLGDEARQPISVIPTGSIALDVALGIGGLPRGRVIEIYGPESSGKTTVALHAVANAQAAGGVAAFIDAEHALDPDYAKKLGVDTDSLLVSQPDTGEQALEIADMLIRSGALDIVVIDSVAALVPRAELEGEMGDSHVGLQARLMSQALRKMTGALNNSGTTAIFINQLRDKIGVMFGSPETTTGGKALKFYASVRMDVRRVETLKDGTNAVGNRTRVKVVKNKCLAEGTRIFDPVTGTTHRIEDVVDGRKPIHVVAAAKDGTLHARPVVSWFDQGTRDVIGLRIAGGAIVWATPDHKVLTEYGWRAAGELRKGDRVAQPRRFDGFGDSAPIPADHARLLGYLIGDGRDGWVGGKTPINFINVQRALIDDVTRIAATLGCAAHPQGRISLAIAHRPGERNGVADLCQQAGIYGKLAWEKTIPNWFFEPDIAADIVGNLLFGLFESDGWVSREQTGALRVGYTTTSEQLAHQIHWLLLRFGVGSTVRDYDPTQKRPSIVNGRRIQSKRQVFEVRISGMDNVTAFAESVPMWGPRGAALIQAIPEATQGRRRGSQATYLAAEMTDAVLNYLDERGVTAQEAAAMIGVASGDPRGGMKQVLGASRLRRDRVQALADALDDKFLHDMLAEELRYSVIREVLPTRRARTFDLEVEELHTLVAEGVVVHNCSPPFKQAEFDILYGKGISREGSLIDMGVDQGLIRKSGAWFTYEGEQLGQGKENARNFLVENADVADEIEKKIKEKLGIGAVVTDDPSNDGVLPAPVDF

HEK293 [10] = test: inhibition of NOD1-driven NF-kB reporter – cell-based, luminescence, uHTS, primary screen (AID 1578); type: functional; conditions: Homo sapiens
HEK293 [11] = test: cells; type: functional, cell-based; conditions: Homo sapiens
HEK293 [12] = test: NOD2 signaling inhibitors in MDP-stimulated cells, cell-based, uHTS, luminescence (AID 2001); type: functional; conditions: Homo sapiens
[13] = target: T5, Replicative DNA helicase DnaB (Mycobacterium tuberculosis, UniProt P9WMR3); test: DnaB intein splicing inhibitors, dose response, biochemical, cell-free fluorescence (AID 449749); type: functional
T5 sequence (P9WMR3 whole entry): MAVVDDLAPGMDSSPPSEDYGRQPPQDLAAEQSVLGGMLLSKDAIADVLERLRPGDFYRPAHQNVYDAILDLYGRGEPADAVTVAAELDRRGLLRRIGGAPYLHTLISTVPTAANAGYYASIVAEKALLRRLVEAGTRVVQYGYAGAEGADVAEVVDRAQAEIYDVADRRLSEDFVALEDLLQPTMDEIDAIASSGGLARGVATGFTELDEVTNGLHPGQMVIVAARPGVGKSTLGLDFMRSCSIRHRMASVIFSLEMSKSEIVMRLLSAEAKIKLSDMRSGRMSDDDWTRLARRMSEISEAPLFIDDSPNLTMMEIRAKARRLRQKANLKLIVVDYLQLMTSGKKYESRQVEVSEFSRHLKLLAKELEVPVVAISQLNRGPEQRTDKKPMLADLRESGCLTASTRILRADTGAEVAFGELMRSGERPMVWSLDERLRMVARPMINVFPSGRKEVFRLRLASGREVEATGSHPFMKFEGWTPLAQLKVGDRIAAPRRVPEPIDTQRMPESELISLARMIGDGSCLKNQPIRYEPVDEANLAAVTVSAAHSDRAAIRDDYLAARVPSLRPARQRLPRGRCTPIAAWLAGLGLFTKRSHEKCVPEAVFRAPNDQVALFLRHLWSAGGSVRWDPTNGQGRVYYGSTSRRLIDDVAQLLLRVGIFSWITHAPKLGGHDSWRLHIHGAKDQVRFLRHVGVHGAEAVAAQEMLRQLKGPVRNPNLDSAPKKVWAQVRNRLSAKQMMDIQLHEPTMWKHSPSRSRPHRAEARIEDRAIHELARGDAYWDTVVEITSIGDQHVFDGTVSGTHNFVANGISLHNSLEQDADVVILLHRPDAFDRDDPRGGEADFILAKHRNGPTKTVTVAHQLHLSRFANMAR

HEK293 [14] = test: cells; type: functional, cell-based; conditions: Homo sapiens; remark: listed apart in the source
[15] = viability loss in Vero cells – cytotoxicity control for Vif-APOBEC3G degradation inhibitor project, dose response (AID 1117358); type: functional; conditions: Vero
H9c2 = test: cells; type: functional, cell-based; conditions: Rattus norvegicus, H9c2, Myocardium;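 note: confirmatory concentration-response retest of ultra-high-throughput screening hits for modulation of myocardial damage; cell death induced by hydrogen peroxide oxidative stress; compound pretreatment for 60 min then peroxide exposure for 2 h; potency is for protecting the cells against peroxide damage rather than for killing them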
[16] = target: Induced myeloid leukemia cell differentiation protein Mcl-1 (Homo sapiens, UniProt Q07820); type: functional
Induced myeloid leukemia cell differentiation protein Mcl-1, sequence (Q07820 whole entry): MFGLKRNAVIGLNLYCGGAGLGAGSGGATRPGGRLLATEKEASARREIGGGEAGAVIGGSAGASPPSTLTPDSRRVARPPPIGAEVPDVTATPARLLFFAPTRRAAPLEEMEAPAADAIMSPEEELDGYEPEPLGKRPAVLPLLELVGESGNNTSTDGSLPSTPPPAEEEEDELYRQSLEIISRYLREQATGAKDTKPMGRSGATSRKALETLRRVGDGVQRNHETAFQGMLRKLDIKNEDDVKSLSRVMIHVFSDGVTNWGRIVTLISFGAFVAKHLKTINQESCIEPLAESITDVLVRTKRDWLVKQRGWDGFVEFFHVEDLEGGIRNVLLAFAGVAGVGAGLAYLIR

Genome polyprotein = Genome polyprotein (dengue virus type 2, UniProt P29990); test: flavivirus cap methylation enzyme inhibition – biochemical, confirmation dose response, primary screen (AID 588689); type: functional
Genome polyprotein, sequence (P29990 2492-3391 limits assumed): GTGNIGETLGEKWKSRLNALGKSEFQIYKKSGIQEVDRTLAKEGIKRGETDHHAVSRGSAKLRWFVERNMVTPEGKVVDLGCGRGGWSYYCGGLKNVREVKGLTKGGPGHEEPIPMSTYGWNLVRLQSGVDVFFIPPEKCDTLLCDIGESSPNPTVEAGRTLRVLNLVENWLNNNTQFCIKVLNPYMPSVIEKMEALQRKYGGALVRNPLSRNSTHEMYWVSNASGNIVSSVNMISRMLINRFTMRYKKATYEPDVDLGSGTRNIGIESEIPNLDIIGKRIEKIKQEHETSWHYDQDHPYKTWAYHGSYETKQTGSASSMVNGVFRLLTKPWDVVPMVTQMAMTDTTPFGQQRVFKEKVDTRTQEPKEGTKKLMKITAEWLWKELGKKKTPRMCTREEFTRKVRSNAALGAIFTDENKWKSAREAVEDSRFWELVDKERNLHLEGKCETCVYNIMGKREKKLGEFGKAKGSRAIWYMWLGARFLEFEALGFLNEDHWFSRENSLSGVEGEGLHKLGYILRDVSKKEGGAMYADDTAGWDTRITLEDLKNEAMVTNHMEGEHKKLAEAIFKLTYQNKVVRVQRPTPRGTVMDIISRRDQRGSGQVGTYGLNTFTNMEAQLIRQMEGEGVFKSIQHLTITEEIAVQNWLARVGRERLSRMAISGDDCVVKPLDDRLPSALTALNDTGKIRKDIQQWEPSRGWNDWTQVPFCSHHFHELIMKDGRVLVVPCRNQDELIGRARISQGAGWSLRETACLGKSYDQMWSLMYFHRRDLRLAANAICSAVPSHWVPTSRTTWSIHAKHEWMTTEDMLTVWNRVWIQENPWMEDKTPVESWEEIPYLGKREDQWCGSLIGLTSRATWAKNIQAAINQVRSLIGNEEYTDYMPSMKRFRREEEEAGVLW

CCN(Cc1ccc(C#CCCO)cc1)CC1CCCN(CCc2cccc(F)c2)C1 (stereo not given)
EC50 [1]: < 0.1 µM (active) | EC50 (cells): 0.369 µM (active) | EC50 [2]: 8.84 µM (active)

Sc1nc2cc(Br)c[nH]c-2n1
IC50 [3]: > 100 µM (inactive) | IC50 [4]: 2.94 µM (active)

CCOc1ccc(NC(=O)N(C2CCCCCC2)C2CCN(C(C)=O)CC2)cc1
IC50 [5]: > 100 µM (active)

CC(=O)c1cccc(CN2CCCC(CCC(=O)NCc3ccccc3F)C2)c1 (stereo not given)
EC50 [1]: < 0.1 µM (active) | EC50 (cells): 0.04 µM (active) | EC50 [2]: > 60 µM (not active)

O=C(O)Cc1c(O)nc2ccc(Br)cc2c1-c1ccccc1Cl
IC50 (Aminopeptidase N): 23.1 µM (active)

Cc1ccc(SC[C@H](Cc2ccccc2)N2CC[C@@H](NC(=O)OCc3ccccc3)CCC2=O)cc1
EC50 [6]: 1.42 µM (active)

Cc1ccc(S(=O)(=O)n2ccc(OC(=O)c3cccs3)n2)cc1
IC50 (SUMO-activating enzyme [7]): 3.61 µM (active) | IC50 (SUMO-activating enzyme [8]): 94.8 µM (active)

COc1cccc(C(=O)NC(=S)N2CCN(c3ccc(C(F)(F)F)cc3[N+](=O)[O-])CC2)c1
EC50 (Streptokinase A): > 150 µM (not active) | EC50 (Streptococcus): > 150 µM (not active) | IC50 (Beta-galactosidase): > 66.6 µM (inactive) | EC50 [9]: > 150 µM (not active)

O=C(Nc1nccs1)c1cn(-c2ccccc2)nc1-c1ccccc1
IC50 [5]: > 100 µM (active)

Cc1ccc(-c2nn(C)c(=O)c3ccccc23)cc1CNC(=O)c1ccccc1
IC50 (Aminopeptidase N): 7.39 µM (active)

CC(C)CCn1c(Sc2nc3ccccc3o2)nc2c1c(=O)[nH]c(=O)n2C
EC50 (Protein RecA): 4.76 µM (active) | EC50 (HEK293 [10]): > 20 µM (inactive) | IC50 (HEK293 [11]): 7.89 µM (active) | IC50 (HEK293 [12]): 5.79 µM (active) | AC50 [13]: > 380 µM (inconclusive) | IC50 (HEK293 [14]): > 20 µM (inactive)

Cc1cccc(N2CCN(C(=O)c3ccncc3)CC2)c1C
CC50 [15]: > 40 µM (active)

CC(=O)Nc1ccc(S(=O)(=O)Nc2cccc(-c3csc(C)n3)c2)cc1
IC50 (Aminopeptidase N): 58.2 µM (active)

O=C(CCNS(=O)(=O)c1ccc(Cl)cc1)NCc1cccnc1
CC50 [15]: > 40 µM (active)

COc1cccc(Cn2cc(-c3cccc(C(F)(F)F)c3)nn2)c1
EC50 [6]: 9.1 µM (active)

C=CCOc1ccc(/C=N/c2ccc(OC)cc2)c(O)c1
IC50 (H9c2): 9.42 µM (active) | IC50 [5]: > 100 µM (active)

Cc1[nH]n(-c2ncc(-c3ccccc3)s2)c(=O)c1C(c1ccc(Cl)cc1)C(C#N)C#N (stereo not given)
IC50 [16]: 8.69 µM (active) | IC50 (SUMO-activating enzyme [7]): 7.91 µM (active) | IC50 (Genome polyprotein): 31.9 µM (active) | IC50 (SUMO-activating enzyme [8]): 28.8 µM (active)
